Measured values reported in ChEMBL document CHEMBL4428075, “New antiproliferative 7-(4-(N-substituted carbamoylmethyl)piperazin-1-yl) derivatives of ciprofloxacin induce cell cycle arrest at G2/M phase” (Bioorg Med Chem, 2016).

Assays:
A549 = assay: Antiproliferative activity against human A549 cells after 24 hrs by BrdU incorporation assay; format: functional, cell-based; details: A549, 24 h
K562 = assay: Antiproliferative activity against human K562 cells at 10^-5 M after 48 hrs by SRB assay; format: functional; details: K562, 48 h, read-out: GI
HL-60(TB) = assay: Antiproliferative activity against human HL-60(TB) cells at 10^-5 M after 48 hrs by SRB assay; format: functional; details: HL-60, 48 h, read-out: GI
HOP-92 = assay: Antiproliferative activity against human HOP92 cells at 10^-5 M after 48 hrs by SRB assay; format: functional; details: HOP-92, 48 h, read-out: GI
RPMI-8226 = assay: Antiproliferative activity against human RPMI8226 cells at 10^-5 M after 48 hrs by SRB assay; format: functional; details: RPMI-8226, 48 h, read-out: GI
SR = assay: Antiproliferative activity against human SR cells at 10^-5 M after 48 hrs by SRB assay; format: functional; details: read-out: GI
HOP-62 = assay: Antiproliferative activity against human HOP62 cells at 10^-5 M after 48 hrs by SRB assay; format: functional; details: HOP-62, 48 h, read-out: GI
NCI-H460 = assay: Antiproliferative activity against human NCI-H460 cells at 10^-5 M after 48 hrs by SRB assay; format: functional; details: NCI-H460, 48 h, read-out: GI
COLO 205 = assay: Antiproliferative activity against human COLO205 cells at 10^-5 M after 48 hrs by SRB assay; format: functional; details: COLO 205, 48 h, read-out: GI
HCC 2998 = assay: Antiproliferative activity against human HCC2998 cells at 10^-5 M after 48 hrs by SRB assay; format: functional; details: HCC 2998, 48 h, read-out: GI
HCT-15 = assay: Antiproliferative activity against human HCT15 cells at 10^-5 M after 48 hrs by SRB assay; format: functional; details: HCT-15, 48 h, read-out: GI
HT-29 = assay: Antiproliferative activity against human HT-29 cells at 10^-5 M after 48 hrs by SRB assay; format: functional; details: HT-29, 48 h, read-out: GI
KM12 = assay: Antiproliferative activity against human KM12 cells at 10^-5 M after 48 hrs by SRB assay; format: functional; details: KM12, 48 h, read-out: GI
SF-268 = assay: Antiproliferative activity against human SF268 cells at 10^-5 M after 48 hrs by SRB assay; format: functional; details: SF-268, 48 h, read-out: GI
SF-295 = assay: Antiproliferative activity against human SF295 cells at 10^-5 M after 48 hrs by SRB assay; format: functional; details: SF-295, 48 h, read-out: GI
SNB-19 = assay: Antiproliferative activity against human SNB19 cells at 10^-5 M after 48 hrs by SRB assay; format: functional; details: SNB-19, 48 h, read-out: GI
DU-145 = assay: Antiproliferative activity against human DU145 cells at 10^-5 M after 48 hrs by SRB assay; format: functional; details: DU-145, 48 h, read-out: GI
LOX IMVI = assay: Antiproliferative activity against human LOXIMVI cells at 10^-5 M after 48 hrs by SRB assay; format: functional; details: read-out: GI
Malme-3M = assay: Antiproliferative activity against human MALME-3M cells at 10^-5 M after 48 hrs by SRB assay; format: functional; details: read-out: GI
MDA-MB-435 = assay: Antiproliferative activity against human MDA-MB-435 cells at 10^-5 M after 48 hrs by SRB assay; format: functional; details: MDA-MB-435, 48 h, read-out: GI
SK-MEL-2 = assay: Antiproliferative activity against human SK-MEL-2 cells at 10^-5 M after 48 hrs by SRB assay; format: functional; details: SK-MEL-2, 48 h, read-out: GI
SK-MEL-5 = assay: Antiproliferative activity against human SK-MEL-5 cells at 10^-5 M after 48 hrs by SRB assay; format: functional; details: SK-MEL-5, 48 h, read-out: GI
UACC-257 = assay: Antiproliferative activity against human UACC257 cells at 10^-5 M after 48 hrs by SRB assay; format: functional; details: UACC-257, 48 h, read-out: GI
UACC-62 = assay: Antiproliferative activity against human UACC62 cells at 10^-5 M after 48 hrs by SRB assay; format: functional; details: UACC-62, 48 h, read-out: GI
IGROV-1 = assay: Antiproliferative activity against human IGROV1 cells at 10^-5 M after 48 hrs by SRB assay; format: functional; details: IGROV-1, 48 h, read-out: GI
OVCAR-3 = assay: Antiproliferative activity against human OVCAR3 cells at 10^-5 M after 48 hrs by SRB assay; format: functional; details: OVCAR-3, 48 h, read-out: GI
OVCAR-4 = assay: Antiproliferative activity against human OVCAR4 cells at 10^-5 M after 48 hrs by SRB assay; format: functional; details: OVCAR-4, 48 h, read-out: GI
OVCAR-5 = assay: Antiproliferative activity against human OVCAR5 cells at 10^-5 M after 48 hrs by SRB assay; format: functional; details: OVCAR-5, 48 h, read-out: GI
OVCAR-8 = assay: Antiproliferative activity against human OVCAR8 cells at 10^-5 M after 48 hrs by SRB assay; format: functional; details: OVCAR-8, 48 h, read-out: GI
SK-OV-3 = assay: Antiproliferative activity against human SKOV3 cells at 10^-5 M after 48 hrs by SRB assay; format: functional; details: SK-OV-3, 48 h, read-out: GI
786-0 = assay: Antiproliferative activity against human 786-0 cells at 10^-5 M after 48 hrs by SRB assay; format: functional; details: 786-0, 48 h, read-out: GI
A498 = assay: Antiproliferative activity against human A498 cells at 10^-5 M after 48 hrs by SRB assay; format: functional; details: A498, 48 h, read-out: GI
CAKI-1 = assay: Antiproliferative activity against human Caki1 cells at 10^-5 M after 48 hrs by SRB assay; format: functional; details: CAKI-1, 48 h, read-out: GI
RXF 393 = assay: Antiproliferative activity against human RXF393 cells at 10^-5 M after 48 hrs by SRB assay; format: functional; details: RXF 393, 48 h, read-out: GI
SN12C = assay: Antiproliferative activity against human SN12C cells at 10^-5 M after 48 hrs by SRB assay; format: functional; details: read-out: GI
MCF7 = assay: Antiproliferative activity against human MCF7 cells at 10^-5 M after 48 hrs by SRB assay; format: functional; details: MCF7, 48 h, read-out: GI
BT-549 = assay: Antiproliferative activity against human BT549 cells at 10^-5 M after 48 hrs by SRB assay; format: functional; details: BT-549, 48 h, read-out: GI
MDA-MB-468 = assay: Antiproliferative activity against human MDA-MB-468 cells at 10^-5 M after 48 hrs by SRB assay; format: functional; details: MDA-MB-468, 48 h, read-out: GI
WI-38 = assay: Antiproliferative activity against human WI38 cells after 24 hrs by BrdU incorporation assay; format: cell-based; details: WI-38, 24 h

| SMILES | IC50 (A549) [µM] | inhibition of growth at 10 µM (K562) [%] | inhibition of growth at 10 µM (HL-60(TB)) [%] | inhibition of growth at 10 µM (HOP-92) [%] | inhibition of growth at 10 µM (RPMI-8226) [%] | inhibition of growth at 10 µM (SR) [%] | inhibition of growth at 10 µM (HOP-62) [%] | inhibition of growth at 10 µM (NCI-H460) [%] | inhibition of growth at 10 µM (COLO 205) [%] | inhibition of growth at 10 µM (HCC 2998) [%] | inhibition of growth at 10 µM (HCT-15) [%] | inhibition of growth at 10 µM (HT-29) [%] | inhibition of growth at 10 µM (KM12) [%] | inhibition of growth at 10 µM (SF-268) [%] | inhibition of growth at 10 µM (SF-295) [%] | inhibition of growth at 10 µM (SNB-19) [%] | inhibition of growth at 10 µM (DU-145) [%] | inhibition of growth at 10 µM (LOX IMVI) [%] | inhibition of growth at 10 µM (Malme-3M) [%] | inhibition of growth at 10 µM (MDA-MB-435) [%] | also measured |
| --- | --- | --- | --- | --- | --- | --- | --- | --- | --- | --- | --- | --- | --- | --- | --- | --- | --- | --- | --- | --- | --- |
| COc1ccc(NC(=O)CN2CCN(c3cc4c(cc3F)c(=O)c(C(=O)O)cn4C3CC3)CC2)cc1 | 24.8 | 5.67 | 0 | 5.92 | 3.36 | 0 | 13 | 6.32 | 2.63 | 0 | 0 | 0.04 | 6.61 | 6.72 | 2.32 | 12.3 | 0 | 39 | 5.64 | 1.51 | inhibition of growth at 10 µM (SK-MEL-2): 0%; inhibition of growth at 10 µM (SK-MEL-5): 3.22%; inhibition of growth at 10 µM (UACC-257): 16.9%; inhibition of growth at 10 µM (UACC-62): 10.5%; inhibition of growth at 10 µM (IGROV-1): 0%; inhibition of growth at 10 µM (OVCAR-3): 0%; inhibition of growth at 10 µM (OVCAR-4): 0%; inhibition of growth at 10 µM (OVCAR-5): 0%; inhibition of growth at 10 µM (OVCAR-8): 6%; inhibition of growth at 10 µM (SK-OV-3): 17%; inhibition of growth at 10 µM (786-0): 20.9%; inhibition of growth at 10 µM (A498): 37.6%; inhibition of growth at 10 µM (CAKI-1): 0%; inhibition of growth at 10 µM (RXF 393): 11.8%; inhibition of growth at 10 µM (SN12C): 4%; inhibition of growth at 10 µM (MCF7): 0%; inhibition of growth at 10 µM (BT-549): 5.78%; inhibition of growth at 10 µM (MDA-MB-468): 6.39%; IC50 (WI-38): > 100 µM |
| O=C(CN1CCN(c2cc3c(cc2F)c(=O)c(C(=O)O)cn3C2CC2)CC1)Nc1ccc(Cl)cc1 | 14.8 | 31.9 | 10.5 | 21.1 | 27.8 | 28.9 | 28.3 | 12.1 | 0.11 | 14.2 | 17 | 42.1 | 17.1 | 8.82 | 12.1 | 16.9 | 0.9 | 38.9 | 8.25 | 11.7 | inhibition of growth at 10 µM (SK-MEL-2): 5.16%; inhibition of growth at 10 µM (SK-MEL-5): 28.9%; inhibition of growth at 10 µM (UACC-257): 43%; inhibition of growth at 10 µM (UACC-62): 36.4%; inhibition of growth at 10 µM (IGROV-1): 6.22%; inhibition of growth at 10 µM (OVCAR-3): 7.56%; inhibition of growth at 10 µM (OVCAR-4): 14.7%; inhibition of growth at 10 µM (OVCAR-5): 0%; inhibition of growth at 10 µM (OVCAR-8): 21.2%; inhibition of growth at 10 µM (SK-OV-3): 36.6%; inhibition of growth at 10 µM (786-0): 29.9%; inhibition of growth at 10 µM (A498): 31.4%; inhibition of growth at 10 µM (CAKI-1): 32.8%; inhibition of growth at 10 µM (RXF 393): 25.3%; inhibition of growth at 10 µM (SN12C): 9.89%; inhibition of growth at 10 µM (MCF7): 5.73%; inhibition of growth at 10 µM (BT-549): 44.2%; inhibition of growth at 10 µM (MDA-MB-468): 14%; IC50 (WI-38): > 100 µM |
| COc1cc(NC(=O)CN2CCN(c3cc4c(cc3F)c(=O)c(C(=O)O)cn4C3CC3)CC2)cc(OC)c1OC | > 100 | 2.65 | 8.4 | 18.7 | 2.8 | 0 | 8.5 | 0 | 0 | 0 | 0 | 1.21 | 0 | 0 | 0 | 0 | 0 | 16.1 | 0 | 0 | inhibition of growth at 10 µM (SK-MEL-2): 7.36%; inhibition of growth at 10 µM (SK-MEL-5): 0%; inhibition of growth at 10 µM (UACC-257): 3.24%; inhibition of growth at 10 µM (UACC-62): 0.79%; inhibition of growth at 10 µM (IGROV-1): 0%; inhibition of growth at 10 µM (OVCAR-3): 6.06%; inhibition of growth at 10 µM (OVCAR-4): 0%; inhibition of growth at 10 µM (OVCAR-5): 0%; inhibition of growth at 10 µM (OVCAR-8): 0%; inhibition of growth at 10 µM (SK-OV-3): 5.77%; inhibition of growth at 10 µM (786-0): 15.2%; inhibition of growth at 10 µM (A498): 0%; inhibition of growth at 10 µM (CAKI-1): 0%; inhibition of growth at 10 µM (RXF 393): 0%; inhibition of growth at 10 µM (SN12C): 2.78%; inhibition of growth at 10 µM (MCF7): 0%; inhibition of growth at 10 µM (BT-549): 7.42%; inhibition of growth at 10 µM (MDA-MB-468): 0%; IC50 (WI-38): > 100 µM |
